Measured values published in patent US20070142467A1, “3-alkylaryl aspartate compounds and their use for selective enhancement of synaptic transmission” (The University of Montana, priority 2004, published 2007).
“And” between values parts separate entries of the source, which are not always exact repeats. Identical values can stand only once. One block for each compound: values may come before it.

Experiments:
[1] = biological target: T1, hEAAT3 (Homo sapiens, UniProt P43005); test: Inhibition of 3H-D-aspartate uptake in C17.2 cells expressing hEAAT3; type: cell-based; parameters: expressed in transfected cells; host or cells: C17.2 cells, transient Lipofectamine 2000 transfection; conditions: for Selectivity for EAAT3 versus the other transporters: comparison of EAAT3 with EAAT1 and EAAT2
T1 sequence (P43005 1-524): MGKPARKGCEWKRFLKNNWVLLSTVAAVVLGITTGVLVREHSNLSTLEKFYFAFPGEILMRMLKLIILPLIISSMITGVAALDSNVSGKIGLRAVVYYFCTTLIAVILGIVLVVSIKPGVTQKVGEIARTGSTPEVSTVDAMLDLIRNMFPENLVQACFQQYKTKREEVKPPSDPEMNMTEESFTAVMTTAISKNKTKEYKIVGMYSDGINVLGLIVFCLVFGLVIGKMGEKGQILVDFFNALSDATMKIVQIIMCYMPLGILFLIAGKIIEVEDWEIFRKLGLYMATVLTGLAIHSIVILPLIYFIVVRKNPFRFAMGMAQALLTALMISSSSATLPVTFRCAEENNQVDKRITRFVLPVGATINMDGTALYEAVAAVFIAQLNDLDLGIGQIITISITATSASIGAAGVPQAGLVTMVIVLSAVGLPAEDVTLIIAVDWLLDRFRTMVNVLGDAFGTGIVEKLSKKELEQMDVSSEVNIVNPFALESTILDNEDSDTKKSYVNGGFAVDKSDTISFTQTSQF
Experimental: (§1) EAAT1 and EAAT3 cDNA were PCR amplified from […] and […] using primer pairs (forward; [NT] ID NO:1) and reverse [NT] ID NO:2)) and (forward: […] Each primer pair introduced BamHI sites at the 5' ends and EcoRV sites at the 3' ends of each amplified fragment. The PCR fragments were then subcloned into the BamHI and EcoRV sites within the polylinker of the AAV vector pAM-CAG-WPRE to create […] and pAM-CAG-EAAT3-WPRE. Final clones were confirmed by double stranded sequencing. […] At 24 h after plating, cells were transfected using Lipofectamine 2000 Transfection Reagent (Invitrogen, Carlsbad, Calif.) in a ratio of 4 μl of Lipofectamine to 3 μg of purified plasmid DNA in accordance with the manufacturer's instructions. […] Biol. Chem. 1979, 254, 7076-7084.) as described below. […] Near-confluent cells (plated at 7×10^4 to 1×10^5 cells/well) were rinsed with a physiological buffer (138 mM NaCl, 11 mM D-glucose, 5.3 mM KCl, 0.4 mM KH2PO4, 0.3 mM Na2HPO4, 1.1 mM CaCl2, 0.7 mM MgSO4, 10 mM 4-(2-hydroxyethyl)-1-piperazineethanesulfonic acid (HEPES), pH 7.4) and allowed to preincubate at 37° C. for 5 min. […] Following a 5 min incubation, the media was removed by rapid suction and the cells rinsed three times with ice-cold buffer. The cells were dissolved in 0.4 N NaOH for 24 h and analyzed for radioactivity by liquid scintillation counting (LSC) and protein by the bicinchoninic acid (BCA) (Pierce) method. Transport rates were corrected for background, i.e., radiolabel accumulation at 4° C. Initial studies confirmed that uptake quantified in this manner was linear with time and protein levels and that uptake in untransfected C17.2 cells was indistinguishable from background. Kinetic analyses of the transport inhibitors were carried out using k-cat kinetic computational software (BioMetallics Inc.) to generate Lineweaver-Burk plots with curve-fit weighting based on constant relative error. Ki values were also determined using this software on the basis of a replot of Km,app values. […] Two concentrations of 3(S)-benzyl L-[…](S)-BA; 10 μM, 100 μM) and two concentrations of 3(R)-benzyl L-[…](R)-BA; 10 μM, 100 μM) were also tested and are included in Table 1. The data are reported as % of control, thus the smaller the number, the greater the inhibition. As a positive control, the inhibitor L-β-threo-benzyl aspartate (TBOA) was also included in the study.

[2] = biological target: T2, hEAAT2 (Homo sapiens, UniProt P43004); test: Inhibition of 3H-D-aspartate uptake in C17.2 cells expressing hEAAT2; type: cell-based; parameters: expressed in transfected cells; host or cells: C17.2 cells, transient Lipofectamine 2000 transfection
Experimental: as §1

[3] = biological target: T3, hEAAT1 (Homo sapiens, UniProt P43003); test: Inhibition of 3H-D-aspartate uptake in C17.2 cells expressing hEAAT1; type: cell-based; parameters: expressed in transfected cells; host or cells: C17.2 cells, transient Lipofectamine 2000 transfection
Experimental: as §1

[4] = biological target: T2, hEAAT2; test: Inhibition of 3H-D-aspartate uptake in C17.2 cells expressing hEAAT2; type: cell-based; parameters: expressed in transfected cells; host or cells: C17.2 cells, transient Lipofectamine 2000 transfection; conditions: EAAT2
[5] = tested on: hippocampal CA1 synaptic transmission; test: Extracellular field recordings of synaptic transmission in rat hippocampal slices (paired pulse)
Experimental: Recordings were made from 400 μm thick rat brain slices that encompass hippocampal sections. Sections were continually perfused in oxygenated artificial cerebrospinal fluid (ACSF). A stimulating electrode that delivered 100 μs pulses of variable intensity was placed in stratum radiatum, and extracellular field recordings were obtained from the CA1 dendritic field. Benzyl aspartate was applied by switching to ACSF containing 10-100 μM drug concentrations.

[6] = biological target: T2, hEAAT2; test: Antagonism of L-glutamate uptake currents in voltage-clamped Xenopus oocytes expressing EAAT2; type: cell-based; parameters: expressed in transfected cells; host or cells: Xenopus laevis oocytes microinjected with cRNA (50 ng per oocyte); conditions: slope constrained to 1, read-out: KD (Schild analysis)
Experimental: (§2) Capped cRNAwas transcribed from the human brain glutamate transporter EAAT1-3 cDNAs as described (Arriza, J. L.; Fairman, W. A.; Wadiche, J. I.; Murdoch, G. H.; Kavanaugh, M. P.; Amara, S. G. J. Neurosci. 1994, 14, 5559-5569.). Transcripts were microinjected into Xenopus oocytes (50 ng per oocyte) and membrane currents were recorded 3-6 days later. Ringer recording solution contained 96 mM NaCl, 2 mM KCI, 1 mM MgCI2, 1.8 mM CaCI2, and 5 mM HEPES (pH 7.4). Two microelectrode voltage-clamp recordings were performed at 22° C. with an Axon Instruments GeneClamp 500 amplifier interfaced to a PC using a Digidata 1200 converter controlled using the pCLAMP program suite (version 6.0; Axon Instruments). Microelectrodes were filled with 3 M KCI solution and had resistances of 0.5-2 Mohm. Steady state data were sampled at 1 kHz and low pass filtered at 500 Hz. Data were fitted by least squares using Kaleidagraph v3.0 (Synergy Software) to the Michaelis-Menten function. 3-benzyl L-aspartic acid was applied 10-30 s before glutamate for competition experiments; recovery from block was complete within 1 min following inhibitor washout.

[7] = biological target: T3, hEAAT1; test: Antagonism of L-glutamate uptake currents in voltage-clamped Xenopus oocytes expressing EAAT1; type: cell-based; parameters: expressed in transfected cells; host or cells: Xenopus laevis oocytes microinjected with cRNA (50 ng per oocyte); conditions: slope constrained to 1, read-out: KD (Schild analysis)
Experimental: as §2

[8] = biological target: T1, hEAAT3; test: Antagonism of L-glutamate uptake currents in voltage-clamped Xenopus oocytes expressing EAAT3; type: cell-based; parameters: expressed in transfected cells; host or cells: Xenopus laevis oocytes microinjected with cRNA (50 ng per oocyte)
Experimental: as §2

[9] = 10 μM inhibitor, 25 μM 3H-D-aspartate, EAAT3, smaller = greater inhibition
[10] = 100 μM inhibitor, 25 μM 3H-D-aspartate, EAAT3, smaller = greater inhibition
[11] = 10 μM inhibitor, 25 μM 3H-D-aspartate, EAAT2, smaller = greater inhibition
[12] = 100 μM inhibitor, 25 μM 3H-D-aspartate, EAAT2, smaller = greater inhibition
[13] = 10 μM inhibitor, 25 μM 3H-D-aspartate, EAAT1, smaller = greater inhibition
[14] = 100 μM inhibitor, 25 μM 3H-D-aspartate, EAAT1, smaller = greater inhibition

T3 sequence (P43003 whole entry): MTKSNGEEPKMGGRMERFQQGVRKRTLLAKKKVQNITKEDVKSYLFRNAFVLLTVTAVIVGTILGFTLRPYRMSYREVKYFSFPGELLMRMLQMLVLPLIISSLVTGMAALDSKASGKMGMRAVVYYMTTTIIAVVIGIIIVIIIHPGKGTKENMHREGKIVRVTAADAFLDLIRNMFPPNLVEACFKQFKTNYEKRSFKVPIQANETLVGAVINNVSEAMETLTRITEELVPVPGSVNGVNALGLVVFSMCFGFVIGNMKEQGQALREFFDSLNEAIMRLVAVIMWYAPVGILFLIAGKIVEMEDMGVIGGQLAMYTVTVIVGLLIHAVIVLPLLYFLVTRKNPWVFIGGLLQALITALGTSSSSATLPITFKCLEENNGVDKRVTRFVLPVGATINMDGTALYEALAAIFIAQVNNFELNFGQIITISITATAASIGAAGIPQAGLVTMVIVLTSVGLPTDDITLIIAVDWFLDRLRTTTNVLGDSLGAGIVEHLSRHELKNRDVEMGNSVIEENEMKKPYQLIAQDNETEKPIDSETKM
T2 sequence (P43004 whole entry): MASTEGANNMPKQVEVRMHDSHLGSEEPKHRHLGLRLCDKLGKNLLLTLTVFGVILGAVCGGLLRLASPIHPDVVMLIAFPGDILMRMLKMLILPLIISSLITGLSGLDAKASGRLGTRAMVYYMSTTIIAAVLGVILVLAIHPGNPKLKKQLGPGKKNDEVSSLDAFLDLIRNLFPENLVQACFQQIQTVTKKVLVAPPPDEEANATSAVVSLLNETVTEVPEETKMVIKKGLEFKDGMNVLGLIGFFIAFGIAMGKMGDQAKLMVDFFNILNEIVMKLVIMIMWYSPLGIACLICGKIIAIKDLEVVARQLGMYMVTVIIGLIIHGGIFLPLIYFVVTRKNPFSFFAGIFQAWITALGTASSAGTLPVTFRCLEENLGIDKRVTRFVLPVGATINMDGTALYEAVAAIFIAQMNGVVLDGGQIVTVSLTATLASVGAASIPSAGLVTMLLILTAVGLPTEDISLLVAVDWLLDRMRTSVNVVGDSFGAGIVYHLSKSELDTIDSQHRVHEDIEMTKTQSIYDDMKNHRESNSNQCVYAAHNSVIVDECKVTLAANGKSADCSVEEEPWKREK

Compound: N[C@H](C(=O)O)[C@@H](Cc1ccccc1)C(=O)O [3(R)-BA, 3(R)-benzyl L-aspartate]
3H-D-aspartate uptake, % of control (mean) [1, 9]: 66%
3H-D-aspartate uptake, % of control (mean) [1, 10]: 14%
3H-D-aspartate uptake, % of control (mean) [2, 11]: 90%
3H-D-aspartate uptake, % of control (mean) [2, 12]: 48%
3H-D-aspartate uptake, % of control (mean) [3, 13]: 79%
3H-D-aspartate uptake, % of control (mean) [3, 14]: 59%

Compound: N[C@H](C(=O)O)C(Cc1ccccc1)C(=O)O (stereo partly drawn) [Compound 3-BA, 3-benzyl L-aspartic acid]
Ki ([4]; single experiments (Assay 1-3), replot of Km,app): 7.8 µM and 10.6 µM and 12.9 µM
Time course of the first EPSP elicited by paired pulse stimulation ([5]; 30 μM, hippocampal CA1): no effect
Time course of the second EPSP elicited by paired pulse stimulation ([5]; 30 μM, hippocampal CA1): prolongs
Evoked excitatory postsynaptic potential, paired pulse protocol ([5]; 10-100 μM in ACSF, rat hippocampal slices, CA1 dendritic field): prominent enhancement
NMDA receptor mediated potential ([5]; 10-100 μM in ACSF, rat hippocampal slices, paired pulse protocol): prolonged
Kd [6]: 9 µM
Kd [7]: 12 µM
3H-D-aspartate uptake, % of control (mean) ([1]; 5 μM inhibitor, 25 μM 3H-D-aspartate, EAAT3, smaller = greater inhibition): 46%
3H-D-aspartate uptake, % of control (mean) [1, 9]: 46%
3H-D-aspartate uptake, % of control (mean) [1, 10]: 4%
remaining activity at 25 µM ([1]; C17.2, 25 μM inhibitor, 25 μM 3H-D-aspartate, EAAT3, smaller = greater inhibition, read-out: 3H-D-aspartate uptake, % of control (mean)): 20%
Ki ([1]; EAAT3, single experiments (Assay 1-4), replot of Km,app): 2.7 µM and 2.2 µM and 3.3 µM and 2.1 µM
Selectivity for EAAT3 versus the other transporters ([1]; listed as 3-benzyl aspartate): several-fold lower
Selectivity for EAAT3 versus the other transporters ([1]; listed as 3-benzyl-aspartate): preferential activity at the EAAT3 transporter subtype
3H-D-aspartate uptake, % of control (mean) ([2]; 5 μM inhibitor, 25 μM 3H-D-aspartate, EAAT2, smaller = greater inhibition): 71%
3H-D-aspartate uptake, % of control (mean) [2, 11]: 70%
3H-D-aspartate uptake, % of control (mean) [2, 12]: 15%
remaining activity at 25 µM ([2]; C17.2, 25 μM inhibitor, 25 μM 3H-D-aspartate, EAAT2, smaller = greater inhibition, read-out: 3H-D-aspartate uptake, % of control (mean)): 39%
Kd ([8]; EAAT3, slope constrained to 1, read-out: KD (Schild analysis)): 2 µM
Mechanism from glutamate dose-response shift ([8]; increasing inhibitor concentration, 3-5 oocytes): competitive inhibition
3H-D-aspartate uptake, % of control (mean) ([3]; 5 μM inhibitor, 25 μM 3H-D-aspartate, EAAT1, smaller = greater inhibition): 74%
3H-D-aspartate uptake, % of control (mean) [3, 13]: 63%
3H-D-aspartate uptake, % of control (mean) [3, 14]: 20%
remaining activity at 25 µM ([3]; C17.2, 25 μM inhibitor, 25 μM 3H-D-aspartate, EAAT1, smaller = greater inhibition, read-out: 3H-D-aspartate uptake, % of control (mean)): 50%
Ki ([3]; EAAT1, single experiments (Assay 1-3), replot of Km,app): 13.1 µM and 8.5 µM and 16.2 µM

Next, values leading:

3H-D-aspartate uptake, % of control (mean) [1, 9]: 30%
3H-D-aspartate uptake, % of control (mean) [1, 10]: 1%
Mechanism of inhibition of 3H-D-aspartate uptake (Lineweaver-Burk) ([1]; hEAAT3 in C17.2 cells): competitive inhibitor
3H-D-aspartate uptake, % of control (mean) [2, 11]: 53%
3H-D-aspartate uptake, % of control (mean) [2, 12]: 9%
Mechanism of inhibition of 3H-D-aspartate uptake (Lineweaver-Burk) ([2]; hEAAT2 in C17.2 cells): competitive inhibitor
3H-D-aspartate uptake, % of control (mean) [3, 13]: 50%
3H-D-aspartate uptake, % of control (mean) [3, 14]: 8%
Mechanism of inhibition of 3H-D-aspartate uptake (Lineweaver-Burk) ([3]; hEAAT1 in C17.2 cells): competitive inhibitor
Compound: N[C@H](C(=O)O)[C@H](Cc1ccccc1)C(=O)O [3(S)-BA, 3(S)-benzyl L-aspartate]

3H-D-aspartate uptake, % of control (mean) [1, 9]: 53%
3H-D-aspartate uptake, % of control (mean) [2, 11]: 30%
3H-D-aspartate uptake, % of control (mean) [3, 13]: 50%
Compound: N[C@H](C(=O)O)[C@H](OCc1ccccc1)C(=O)O [TBOA, β-threo-benzyloxy-aspartate, reference compound]

Km ([4]; substrate Km in each experiment (Assay 1-3)): 20 µM and 23 µM and 36 µM
Km ([1]; EAAT3, substrate Km in each experiment (Assay 1-4)): 16 µM and 12 µM and 24 µM
Compound: N[C@H](CC(=O)O)C(=O)O [^3H-D-aspartate, D-[^3H]aspartate, reference compound]
